# Laboratory results taken from patent US20250129083A1, “IMIDAZOTETRAZINE COMPOUNDS AND TREATMENT OF TMZ-RESISTANT CANCERS” (THE BOARD OF TRUSTEES OF THE UNIVERSITY OF ILLINOIS, priority 2022, published 2025).
# Read-outs that look alike come from different tables or passages of the source.
# Experiments:
# U87 GBM cell line = experiment: Cell viability assay (Alamar Blue, 7 days), U87; assay type: cell-based, human; settings: Homo sapiens, 168 h, MGMT (−) MMR (+), 600 c/w, SEM, n=3, read-out: Activity, U87
# Method: (§1) Cell Culture and Reagents. All cell lines were grown in a 37° C., 5% CO2, humidified environment, in media containing 1% penicillin/streptomycin. Stable cell line generation of GL261 MGMT+ was purchased from Creative Biogene. Cell culture conditions are as follows: cell lines U87, T98G, and RKO were grown in EMEM with 10% FBS. D54, GL261, GL261 MGMT+, and U118MG cell lines were grown in DMEM with 10% FBS. HCT116 cells were grown in RMPI with 10% FBS. D341 Med cells were grown in EMEM with 20% FBS. Temozolomide (TMZ) was purchased from AK Scientific. TMZ analogues were synthesized as described below. Compounds were dissolved in DMSO (1% final concentration, Fisher Chemical) for cell culture studies.
# (§2) Cell Viability Assays. Cells were harvested, seeded in a 96-well plate and allowed to adhere. After three hours, compound was added to each well in DMSO (1% final concentration). Cells were incubated for seven days (unless otherwise noted) before viability was assessed by the Alamar Blue assay. Raptinal (20 μM) was used as a dead control.
# (§3) Plated 1500 c/w for GL261; 600 c/w for U87; 600 c/w for U118MG; 1500 c/w for GL261 MGMT+ Incubated ovn and added 1 μL of compound in DMSO the next day. Incubated over 7 days; added Alamar Blue to assess cell viability and used 10 μM Raptinal as dead control. Error is SEM, n=3.
# GL261 cells = experiment: Cell viability assay (Alamar Blue, 7 days), GL261; assay type: cell-based; settings: Mus musculus, GL261, 168 h; MGMT (−) MMR (+); 7 days; 1500 c/w; SEM, n=3; read-out: Activity, GL261
# Method: as §1, §2, §3
# GL261 MGMT+ cells = experiment: Cell viability assay (Alamar Blue, 7 days), GL261 MGMT+; assay type: cell-based; settings: Mus musculus, GL261, 168 h; MGMT (+) MMR (+); 7 days; 1500 c/w; SEM, n=3; read-out: Activity, GL261 MGMT+
# Method: To further explore the ability of CPZ to evade MGMT-mediated resistance, MGMT-expressing T98G cells were pretreated with MGMT inhibitor O6BG followed by treatment with TMZ or CPZ. […] This cell death potentiation by TMZ upon treatment with an MGMT inhibitor was also observed in MGMT-expressing cell lines U118MG and RKO, whereas the efficacy of CPZ was again unaffected. For MGMT (−)/MMR (−) HCT116 cells, negligible potentiation of TMZ cytotoxicity was observed upon pretreatment with O6BG, confirming that loss of MMR capacity, not MGMT expression, was responsible for resistance to TMZ in HCT116 cells. Additionally, human MGMT was knocked into the MGMT-negative mouse glioma cell line, GL261, establishing the novel cell line GL261 MGMT+.
# as §1, §2, §3
# U118MG cells = experiment: Cell viability assay (Alamar Blue, 7 days), U118MG; assay type: cell-based; settings: Homo sapiens, U-118-MG, 168 h, MGMT (+) MMR (+), 600 c/w, SEM, n=3
# Method: as §1, §2, §3
# HCT116 cells = experiment: Cell viability assay (Alamar Blue, 7 days), HCT116; assay type: cell-based; settings: Homo sapiens, HCT-116, 168 h; MGMT (−) MMR (−); 7 days; read-out: Activity, HCT116
# Method: as §1, §2
# [1] = system: RKO colon cancer cell line; experiment: Cell viability assay (Alamar Blue, 7 days), RKO; assay type: cell-based; settings: 168 h; 7 days; read-out: Activity, RKO
# Method: as §1, §2
# [2] = Hydrolytic stability studies; assay type: physicochemical; settings: PBS, pH 7.4, 37° C.; HPLC
# Method: Hydrolytic Stability Studies. Compound (100 μM) was incubated at 37° C. in PBS at pH 7.4 (unless otherwise noted). At the indicated time point, an aliquot was collected and analyzed by HPLC. Compound peaks were integrated and compared to the integration at to calculate the percentage of prodrug remaining.
# [3] = system: S. typhimurium TA100 strain; experiment: Ames test, TA100; assay type: cell-based; settings: 30 μM
# Method: (§4) Next, we measured the mutagenicity of CPZ versus TMZ. TMZ and other DNA methylating chemotherapies are known mutagens, inducing G:C→A:T mutations due to erroneous recognition of O^6-methylguanine. […] CPZ and TMZ (at 30 μM) were also assessed in the E. coli WP2 uvrA pKM101 strain, which is considered one of the more sensitive Ames tester strains available.
# Ames Test. Compounds were assessed at the indicated concentrations in the TA100 tester strain using the Muta-ChromoPlate 96-well microplate version of the Ames test (Environmental Bio-Detection Products, Prod. No. 5051) according to manufacturer's instructions. In brief, TA100 S. typhimurium bacteria were grown overnight and plated with compound, growth medium, and indicator (no S9 activation) in 96 well plates. Bacteria were incubated for 5 days before the number of wells per 96 well plate containing revertant colonies were identified colorimetrically.
# [4] = system: E. coli WP2 uvrA pKM101 strain; experiment: Ames test, E. coli WP2 uvrA pKM101; assay type: cell-based; settings: 30 μM
# Method: as §4
# [5] = Maximum tolerated dose / tolerability in mice; assay type: in vivo; settings: for MTD at 5 days: in vivo, 66 mg/kg, once per day over 5 days
# [6] = Solubility in IV formulations; assay type: physicochemical; settings: IV formulation
# [7] = Hepatic metabolism: stability in mouse liver microsomes; assay type: in vitro ADME
# Brain tissue binding = assay type: in vitro ADME; settings: 10 uM, 1 h at 37 C in brain tissue homogenate
# [8] = Syngeneic subcutaneous model; assay type: in vivo; settings: C57BL/6 mice, 1×10^6 cells; 50 mg/kg IV 1×/day over 5 days from day 5
# Method: FIG. 10A-B. Syngeneic Subcutaneous Model (A, B). TABZ and TMZ in vivo: C57BL/6 mice were inoculated with 1×10^6 cells and treated xl/day over 5 days with either vehicle, TMZ, or TABZ (via IV, 50 mg/kg, starting on day 5).
# cancer cells = experiment: Rapid cancer cell death phenotype; assay type: cell-based; settings: relative to TMZ
# Excerpt: FIG. 8A-C. Rapid Cancer Cell Death Phenotype.
# [9] = 6.6 mg/mL solution for 200 μL injection
structure (smiles),measurement,setting,value
"CC#CCn1nnc2c(C(=O)N(C)C)ncn2c1=O [TABZ, 3-(but-2-yn-1-yl)-N,N-dimethyl-4-oxo-3,4-dihydroimidazo[5,1-d][1,2,3,5]tetrazine-8-carboxamide]",IC50,U87 GBM cell line,16 ± 2 µM
same,IC50,GL261 cells,35 ± 2 µM
same,IC50,GL261 MGMT+ cells,18 ± 1 µM
same,IC50,U118MG cells,24 ± 5 µM
same,IC50,HCT116 cells,6 ± 0.42 µM
same,IC50,[1],9 ± 1 µM
same,Hydrolytic stability: percentage of prodrug remaining after 2 hours,[2],31±1%
same,"Mutagenicity, TA100",[3],non-mutagenic
same,"Mutagenicity, E. coli WP2 uvrA pKM101",[4],non-mutagenic
same,"Tolerated dose, 1×/day via IV injection",[5],50 mg/kg
same,MTD at 5 days,"[5]; female, C57BL/6, mouse, ip, intraperitoneal, read-out: MTD, I.P.",66 mg/kg
same,MTD at 5 days,"[5]; mouse, intravenous, read-out: MTD, I.V.",66 mg/kg
same,Solubility in 20/80 DMSO/PBS,[6]; 5 mg/mL solution for 100 μL injection,Soluble*
same,Solubility in 15/7/5/73 DMSO/NMP/T20/20% SPE-βCD,[6]; [9],Soluble >25 min
same,Solubility in 15/10/75 DMSO/NMP/20% SPE-βCD,[6]; [9],Soluble 20 min
same,"Stability (2 h, with MLM)","[7]; percentage remaining relative to t0, mouse liver microsomes, SEM, n ≥ 2",77 ± 2%
same,"Stability (2 h, no MLM)","[7]; percentage remaining, microsomes replaced with PBS",87 ± 2%
same,"Brain tissue binding, insoluble fraction, tissue homogenizer",Brain tissue binding,40 ± 4%
same,"Brain tissue binding, insoluble fraction, ultrasonication",Brain tissue binding,39 ± 4%
same,"Brain tissue binding, soluble fraction, tissue homogenizer",Brain tissue binding,64 ± 4%
same,"Brain tissue binding, soluble fraction, ultrasonication",Brain tissue binding,61 ± 4%
same,Tumor growth,[8],no exacerbation
same,Speed of cell death induction,cancer cells,induce cell death quickly relative to TMZ
